Assays:
Assay in all cases: relative viability (nuclei count vs DMSO), 5 days (fraction); higher = more cells survive
[1] = compound: CNC(=O)c1cc(Oc2ccc(NC(=O)Nc3ccc(Cl)c(C(F)(F)F)c3)cc2)ccn1 [Sorafenib] + CC1(C)CCC(c2ccc(Cl)cc2)=C(CN2CCN(c3ccc(C(=O)NS(=O)(=O)c4ccc(N[C@H](CCN5CCOCC5)CSc5ccccc5)c(S(=O)(=O)C(F)(F)F)c4)cc3)CC2)C1 [Navitoclax] (partner 0.5 µM)
Procedure, shortened: (§1)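 Relative viability divides the nuclei count in treated wells by that in vehicle wells. Lung cancer cell lines were seeded in 1536-well plates, dosed by pin tool the next day, and fixed and stained after 5 days in one step with final 0.05% Triton X-100, 1% formaldehyde and 1 ug/ml Hoechst. Dosing was a single drug or a fixed anchor-drug dose plus five library-drug doses (not always all listed) in √10 steps, and values are medians of duplicate plates imaged at 4×.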

[2] = compound: CNC(=O)c1cc(Oc2ccc(NC(=O)Nc3ccc(Cl)c(C(F)(F)F)c3)cc2)ccn1 [Sorafenib] + C[C@@H](Oc1cc(-c2cnn(C3CCNCC3)c2)cnc1N)c1c(Cl)ccc(F)c1Cl [Crizotinib] (partner 1 µM)
Procedure, shortened: as §1

[3] = compound: CNC(=O)c1cc(Oc2ccc(NC(=O)Nc3ccc(Cl)c(C(F)(F)F)c3)cc2)ccn1 [Sorafenib] + CC(=O)Nc1cccc(-n2c(=O)n(C3CC3)c(=O)c3c(Nc4ccc(I)cc4F)n(C)c(=O)c(C)c32)c1 [Trametinib] (partner 0.02 µM)
Procedure, shortened: as §1

[4] = compound: CNC(=O)c1cc(Oc2ccc(NC(=O)Nc3ccc(Cl)c(C(F)(F)F)c3)cc2)ccn1 [Sorafenib] + CCNC(=O)c1noc(-c2cc(C(C)C)c(O)cc2O)c1-c1ccc(CN2CCOCC2)cc1 [Luminespib] (partner 0.01 µM)
Procedure, shortened: as §1

[5] = compound: CNC(=O)c1cc(Oc2ccc(NC(=O)Nc3ccc(Cl)c(C(F)(F)F)c3)cc2)ccn1 [Sorafenib] + CS(=O)(=O)N1CCN(Cc2cc3nc(-c4cccc5[nH]ncc45)nc(N4CCOCC4)c3s2)CC1 [Pictilisib] (partner 1 µM)
Procedure, shortened: as §1

Cell Line	relative viability ([1]; first compound 0.08 µM)	relative viability ([1]; first compound 0.253 µM)	relative viability ([1]; first compound 2.53 µM)	relative viability ([1]; first compound 8 µM)	relative viability ([2]; first compound 0.08 µM)	relative viability ([2]; first compound 0.253 µM)	relative viability ([2]; first compound 2.53 µM)	relative viability ([2]; first compound 8 µM)	relative viability ([3]; first compound 0.08 µM)	relative viability ([3]; first compound 0.253 µM)	relative viability ([3]; first compound 2.53 µM)	relative viability ([3]; first compound 8 µM)	relative viability ([4]; first compound 0.08 µM)	relative viability ([4]; first compound 0.253 µM)	relative viability ([4]; first compound 2.53 µM)	relative viability ([4]; first compound 8 µM)	relative viability ([5]; first compound 0.08 µM)	relative viability ([5]; first compound 0.253 µM)	relative viability ([5]; first compound 2.53 µM)	relative viability ([5]; first compound 8 µM)
EKVX	1.13	0.882	0.884	0.963	0.96	0.846	0.917	0.877	0.36	0.349	0.317	0.219	0.963	0.864	0.808	0.854	0.529	0.463	0.434	0.393
EMC-BAC-2	1.22	1.06	1.18	1.11	0.648	0.728	0.762	0.809	0.86	–	0.7	0.44	1.21	1.08	1.17	0.812	0.54	0.6	0.549	0.472
EPLC-272H	1.22	1.14	1.04	0.96	–	0.819	–	0.855	0.298	0.274	0.27	0.205	0.26	0.303	0.263	0.335	0.393	0.286	0.45	0.299
H3255	0.652	0.46	0.616	0.502	1.06	0.809	0.799	0.62	0.619	0.563	0.463	0.364	1	0.781	0.925	–	0.525	0.434	0.521	0.305
HARA	1.17	1.08	–	1.13	1.15	1.02	1.03	0.931	0.626	–	0.233	0.228	0.936	0.696	0.609	0.526	0.373	0.341	0.411	0.327
HCC-15	0.748	0.713	0.804	0.522	0.836	0.774	0.813	0.566	0.411	0.354	0.396	0.3	0.533	0.26	0.338	0.185	0.729	0.683	–	0.602
HCC-44	–	0.92	1.03	0.909	0.811	0.735	0.725	0.565	1.07	1.04	1.01	–	1.09	1.01	1.02	0.992	0.628	0.693	0.673	0.549
HCC-78	0.814	0.731	0.739	0.84	0.394	0.361	0.483	0.507	0.807	0.646	0.897	0.523	–	–	–	–	0.254	0.229	0.268	0.217

— the supplement of paper PMC10307832
